Experimental data reported in patent US8241647B2, “Amphiphilic molecule, molecular assembly comprising the amphiphilic molecule, and use of the molecular assembly” (Waseda University, priority 2007, dated 2012).
Entries after “also recorded” stand apart in the source; their conditions may differ.

Assays:
[1] = Measurement of zeta potential of liposomes; type: physicochemical; details: 37°C
Method: Portions of the prepared liposome ([lipid]=10 mg/ml) were respectively added to acetate buffers with different pHs (7.4, 7, 6, 5, 4) (30 mM) to the final concentration of [lipid]=1 mg/mL, and then the zeta potential at 37° C. was measured. Zetasizer 4 manufactured by Malvern was used. A capillary cell was filled with a liposome-dispersed liquid obtained by dilution to the measurement concentration, and the measurement was performed at 37° C. 3 times.
Portions of the prepared liposome ([lipid]=10 mg/ml) were respectively added to acetate buffers with different pHs (7.4, 7, 6, 5, 4) (20 mM) to the final concentration of [lipid]=1 mg/mL, and then the zeta potential at 37° C. was measured.
Portions of each of the prepared liposomes ([lipid]=10 mg/ml) were respectively added to acetate buffers with different pHs (7.4, 7, 6, 5, 4) (20 mM) to the final concentration of [lipid]=1 mg/mL, and then the zeta potential at 37° C. was measured.

[2] = Concentration of Compound 3 in rat tissue 24 hours after i.v. liposome (LC/MS/MS); type: in vivo; details: for concentration at 24 h: male, SD, rat, iv, 24 hours after i.v. liposome
Method: A pH-responsive liposome was prepared from mixed lipid (Compound (3)/cholesterol/PEG-Glu2C18=5/5/0.03 (mol)) using the high-pressure extrusion method. In the preparation, the particle size of the liposome was adjusted to 200 to 250 nm. Further, BSA was encapsulated in the internal aqueous phase. The prepared pH-responsive liposome ([Lipid]=20 mg/mL) was intravenously administered to a SD rat (male, body weight of 300 g or less) via the tail vein in an amount of 2 ml/kg under ether anesthesia. The number of rats used was N=3. Prior to the administration and 5 minutes, 1, 2, 6 and 24 hours after the administration, blood was collected (about 500 μL). The obtained blood was subjected to centrifugation (2,000×g, 20 minutes) to obtain plasma (liposome-suspended plasma), and this was preserved at −80° C. Further, after blood was collected 24 hours after the administration, the liver, spleen, lung and kidney were isolated, the wet weight thereof was measured, and these materials were preserved at −80° C. After that, homogenization was carried out using a saline in an amount 4 times greater than the wet weight of the organs.
A material in which the procedure is carried out until 100 μL of methanol is added to 10 μL of homogenate solution of plasma and the organs was used as a sample for measurement of specimen.
To the above-described sample for measurement, a solution to which an internal standard material (1,5-dihexadecyl N-glutamyl-L-glutamate (αGlu-Glu2C16)) was added (900 μL) was added, and the mixture was subjected to vortex stirring. After that, the mixture was allowed to stand at room temperature for at least 10 minutes. After that, the mixture was subjected to vortex stirring again and centrifuged at 4° C. at 10,000×g for 15 minutes. The obtained supernatant was transferred to an LC vial.
An analyte for producing a calibration curve for measurement of tissue was measured, and a calibration curve of 1-100 μg/ml was prepared with weighting of 1/x^2 and Quadratic. The peak area of the analyte for measurement of tissue/IS peak area was substituted into the obtained formula of the calibration curve to calculate the concentration of Compound 3 in tissue (in the calculation, the specific gravity of the tissue homogenate was regarded as 1 g/mL). FIG. 9 is a graph showing the results.

zeta potential of the liposome ([1]; liposome Compound 3/cholesterol/PEG-Glu2C18 (5/5/0.03), pH 7.4): negative
zeta potential as pH was decreased ([1]; liposome Compound 3/cholesterol/PEG-Glu2C18 (5/5/0.03 molar ratio), acetate buffers pH 7.4-4 (30 mM)): changed from negative to positive
pH at which the zeta potential changed from negative to positive ([1]; liposome compound/cholesterol/PEG-Glu2C18 (5/5/0.03 molar ratio), acetate buffers 20 mM): about 5.7
concentration at 24 h ([2]; liver, Liver, Average value): 76800 ng/g
concentration at 24 h ([2]; liver, Liver, animal 1): 110000 ng/g
concentration at 24 h ([2]; liver, Liver, animal 2): 64400 ng/g
concentration at 24 h ([2]; liver, Liver, animal 3): 55600 ng/g
concentration at 24 h ([2]; lung, Lung, Average value): 5600 ng/g
concentration at 24 h ([2]; lung, Lung, animal 1): 5600 ng/g
concentration at 24 h ([2]; lung, Lung, animal 2): 5020 ng/g
concentration at 24 h ([2]; lung, Lung, animal 3): 6170 ng/g
concentration at 24 h ([2]; spleen, Spleen, Average value): 33500 ng/g
concentration at 24 h ([2]; spleen, Spleen, animal 1): 30400 ng/g
concentration at 24 h ([2]; spleen, Spleen, animal 2): 33400 ng/g
concentration at 24 h ([2]; spleen, Spleen, animal 3): 36700 ng/g
SMILES: CCCCCCCCCCCCCCCCOC(=O)CCC(NC(=O)C(CCCCNC(=O)C(N)CCC(=O)O)NC(=O)C(N)CCC(=O)O)C(=O)OCCCCCCCCCCCCCCCC (stereo not shown) [Compound 3]
distribution of Compound 3 in the organs ([2]; SD rat, 24 hours after the administration of pH-responsive liposome): mainly localized in the liver and spleen; also recorded: Almost no Compound 3 was localized in the kidney and lung
